Source: patent US20230279023A1, “N/O-Linked Degrons and Degronimers for Protein Degradation” (C4 Therapeutics, Inc., priority 2019, published 2023)
Where a name gives a salt, the structure may show the parent alone.

What follows are molecules tested against CRBN-DDB1 (Homo sapiens (Human), UniProt Q96SW2) (assay: Fluorescence polarization (FP) assay for compound ligand binding to CRBN-DDB1). Settings: FP displacement of (−)-Thalidomide-Alexa Fluor or Pomalidomide-fluorescein probe; 400 nM CRBN-DDB1, 5 nM probe; Additional Compounds of the Present Invention.
Protocol: Measuring compound ligand binding to CRBN-DDB1 was carried out using an established sensitive and quantitative in vitro fluorescence polarization (FP) based binding assay. […] Compounds were dispensed from serially diluted DMSO stock into black 384-well compatible fluorescence polarization plates using an Echo acoustic dispenser. Compound binding to CRBN-DDB1 was measured by displacement of either a (−)-Thalidomide-Alexa Fluor® or Pomalidomide-fluorescein conjugated probe dye. […] Matching control wells excluding CRBN-DDB1 were used to correct for background fluorescence. Plates were read on an Envision plate reader with appropriate FP filter sets. The corrected S (perpendicular) and P (parallel) values were used to calculate fluorescence polarization (FP) with the following equation: […]

Chain of CRBN-DDB1 (Q96SW2 whole entry): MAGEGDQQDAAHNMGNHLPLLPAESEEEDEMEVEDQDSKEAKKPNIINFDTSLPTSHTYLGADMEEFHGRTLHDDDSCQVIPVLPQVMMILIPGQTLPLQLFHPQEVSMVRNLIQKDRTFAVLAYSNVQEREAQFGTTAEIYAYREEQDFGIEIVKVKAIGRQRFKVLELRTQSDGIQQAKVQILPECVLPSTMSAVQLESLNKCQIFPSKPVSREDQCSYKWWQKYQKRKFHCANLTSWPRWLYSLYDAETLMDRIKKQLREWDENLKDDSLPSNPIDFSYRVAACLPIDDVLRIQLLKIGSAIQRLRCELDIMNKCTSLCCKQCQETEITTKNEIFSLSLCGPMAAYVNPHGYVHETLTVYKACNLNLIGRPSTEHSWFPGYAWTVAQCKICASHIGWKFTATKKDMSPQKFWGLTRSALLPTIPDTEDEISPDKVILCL
Chain of CRBN-DDB1 (Q16531 whole entry partner): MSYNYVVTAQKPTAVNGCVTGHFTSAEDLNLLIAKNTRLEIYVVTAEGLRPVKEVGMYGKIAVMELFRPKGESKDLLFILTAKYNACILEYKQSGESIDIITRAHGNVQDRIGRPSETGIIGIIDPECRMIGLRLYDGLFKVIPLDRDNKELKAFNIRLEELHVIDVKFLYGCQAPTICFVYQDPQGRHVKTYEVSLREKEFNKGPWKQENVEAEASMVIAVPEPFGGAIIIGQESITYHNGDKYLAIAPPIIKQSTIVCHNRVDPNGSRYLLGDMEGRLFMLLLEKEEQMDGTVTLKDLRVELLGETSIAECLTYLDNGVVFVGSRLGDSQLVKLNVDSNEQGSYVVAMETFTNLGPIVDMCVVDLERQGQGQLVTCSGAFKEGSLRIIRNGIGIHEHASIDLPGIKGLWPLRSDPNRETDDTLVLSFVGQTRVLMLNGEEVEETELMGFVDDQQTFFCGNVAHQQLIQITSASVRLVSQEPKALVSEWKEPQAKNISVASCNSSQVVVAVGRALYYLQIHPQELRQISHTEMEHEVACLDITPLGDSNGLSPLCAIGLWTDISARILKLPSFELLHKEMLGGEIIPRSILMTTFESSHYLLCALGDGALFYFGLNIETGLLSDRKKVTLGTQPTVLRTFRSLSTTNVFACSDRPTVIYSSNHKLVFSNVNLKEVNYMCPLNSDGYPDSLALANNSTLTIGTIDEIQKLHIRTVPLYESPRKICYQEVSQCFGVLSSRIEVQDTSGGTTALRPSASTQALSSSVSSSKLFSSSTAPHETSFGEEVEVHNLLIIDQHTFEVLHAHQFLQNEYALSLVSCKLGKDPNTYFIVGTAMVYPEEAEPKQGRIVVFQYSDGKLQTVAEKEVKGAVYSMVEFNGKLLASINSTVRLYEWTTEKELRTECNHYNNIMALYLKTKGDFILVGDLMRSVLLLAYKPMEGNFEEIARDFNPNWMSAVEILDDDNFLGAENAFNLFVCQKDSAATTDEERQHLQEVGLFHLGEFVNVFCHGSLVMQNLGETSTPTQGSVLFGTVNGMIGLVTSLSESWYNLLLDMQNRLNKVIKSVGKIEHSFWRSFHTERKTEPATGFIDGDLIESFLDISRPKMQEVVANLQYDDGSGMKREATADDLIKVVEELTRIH

| Structure (SMILES) | Kd |
| --- | --- |
| C#Cc1cccc(OC2CCC(=O)NC2=O)c1 (stereo not shown) [Compound 150] | < 10 µM |
| O=C1CCC(Oc2ccc3c(c2)CCCC3=O)C(=O)N1 (stereo not shown) [Compound 148] | < 10 µM |
| CCOc1cccc(OC2CCC(=O)NC2=O)c1 (stereo not shown) [Compound 141] | < 10 µM |
| O=C1CCC(Oc2ccc3ccccc3c2)C(=O)N1 (stereo not shown) [Compound 135] | < 10 µM |
| O=C1CCC(Oc2ccccc2C(=O)N2CCCC2)C(=O)N1 (stereo not shown) [Compound 136] | > 100 µM |
| O=C1CCC(Oc2cccc3cccnc23)C(=O)N1 (stereo not shown) [Compound 147] | < 10 µM |
| CC1(C)Cc2cccc(OC3CCC(=O)NC3=O)c2O1 (stereo not shown) [Compound 145] | < 10 µM |
| CCc1ccc(OC2CCC(=O)NC2=O)cc1 (stereo not shown) [Compound 137] | < 10 µM |
| N#Cc1ccc2cc(OC3CCC(=O)NC3=O)ccc2c1 (stereo not shown) [Compound 138] | < 10 µM |
| O=C1CCC(Oc2ccc(C3CCCC3)cc2)C(=O)N1 (stereo not shown) [Compound 152] | < 10 µM |
| O=C1CCC(OC2CCN(c3ccccc3)CC2)C(=O)N1 (stereo not shown) [Compound 134, 3-(1-Phenyl-piperidin-4-yloxy)-piperidine-2,6-dione] | > 100 µM |
| CC(=O)CCc1ccc(OC2CCC(=O)NC2=O)cc1 (stereo not shown) [Compound 154] | < 10 µM |
| CC(C)(C)OC(=O)N1CCN(c2ccc(OC3CCC(=O)NC3=O)cc2)CC1 (stereo not shown) [Compound 132, 4-[4-(2,6-Dioxo-piperidin-3-yloxy)-phenyl]-piperazine-1-carboxylic acid tert-butyl ester] | < 10 µM |
| CN(C)c1cccc(OC2CCC(=O)NC2=O)c1 (stereo not shown) [Compound 151] | < 10 µM |
| O=C1CCC(Oc2ccc3c(c2)OCO3)C(=O)N1 (stereo not shown) [Compound 149] | < 10 µM |
| O=C1CCC(Oc2ccc(N3CCNCC3)cc2)C(=O)N1 (stereo not shown) [Compound 133, 3-(4-Piperazin-1-yl-phenoxy)-piperidine-2,6-dione hydrochloride] | < 10 µM |
| Cn1ccc2cc(OC3CCC(=O)NC3=O)ccc21 (stereo not shown) [Compound 140] | < 10 µM |
| CN1Cc2cc(NC3CCC(=O)NC3=O)ccc2C1=O (stereo not shown) [Compound 160] | < 10 µM |
| N#Cc1ccc(-c2ccc(OC3CCC(=O)NC3=O)cc2)cc1 (stereo not shown) [Compound 139] | < 10 µM |

Same assay, conditions: FP displacement of (−)-Thalidomide-Alexa Fluor or Pomalidomide-fluorescein probe; 400 nM CRBN-DDB1, 5 nM probe; Compounds of the Present Invention

| Structure (SMILES) | Kd |
| --- | --- |
| CN(c1ccc(Br)cc1)C1CCC(=O)NC1=O (stereo not shown) [Compound 32] | < 10 µM |
| CN(c1ccc(C(F)(F)F)cc1)C1CCC(=O)NC1=O (stereo not shown) [Compound 59] | < 10 µM |
| CC(C)(C)OC(=O)N1CCN(c2cccc(NC3CCC(=O)NC3=O)c2)CC1 (stereo not shown) [Compound 82] | < 10 µM |
| CN(c1cccc(N2CCN(C(=O)OC(C)(C)C)CC2)c1)C1CCC(=O)NC1=O (stereo not shown) [Compound 88] | < 10 µM |
| O=C1CCC(Nc2ccc(C(F)(F)F)cc2)C(=O)N1 (stereo not shown) [Compound 26] | < 10 µM |
| COc1cc(Cl)c(C)cc1NC1CCC(=O)NC1=O (stereo not shown) [Compound 4] | < 10 µM |
| CC(C)(C)OC(=O)N1CCC(c2ccc(NC3CCC(=O)NC3=O)cc2)CC1 (stereo not shown) [Compound 81] | < 10 µM |
| CN(c1cccc(Br)c1)C1CCC(=O)NC1=O (stereo not shown) [Compound 57] | < 10 µM |
| CC(C)(C)OC(=O)n1cc(C#N)c(NC2CCC(=O)NC2=O)n1 (stereo not shown) [Compound 95] | > 100 µM |
| Cc1ccccc1N(C)C1CCC(=O)NC1=O (stereo not shown) [Compound 61] | < 10 µM |
| CN1CC(N(C)C2CCC(=O)NC2=O)C1 (stereo not shown) [Compound 102] | > 100 µM |
| CC(C)(C)OC(=O)N1CCc2cc(NC3CCC(=O)NC3=O)ccc2C1 (stereo not shown) [Compound 79] | < 10 µM |
| CNC(=O)CN(C)C1CCC(=O)NC1=O (stereo not shown) [Compound 109] | > 100 µM |
| CC(C)(C)c1ccccc1NC1CCC(=O)NC1=O (stereo not shown) [Compound 41] | < 10 µM |
| O=C1C=C(Nc2ccccc2)C(=O)N1 [Compound 112] | > 100 µM |
| O=C1CCC(Nc2ccccc2OC(F)F)C(=O)N1 (stereo not shown) [Compound 55] | < 10 µM |
| CN(c1cccc(Cl)c1)C1CCC(=O)NC1=O (stereo not shown) [Compound 34] | < 10 µM |
| CN(C1COC1)C1CCC(=O)NC1=O (stereo not shown) [Compound 97] | > 100 µM |
| O=C1CCC(Nc2ccc(-c3ccccc3)cc2)C(=O)N1 (stereo not shown) [Compound 6] | < 10 µM |
| Cc1cccc(NC2CCC(=O)NC2=O)c1C#N (stereo not shown) [Compound 65] | < 10 µM |
| CN1CCN(c2ccc(NC3CCC(=O)NC3=O)cc2)CC1 (stereo not shown) [Compound 66] | < 10 µM |

| Structure (SMILES) | Kd |
| --- | --- |
| O=C1CCC(NC2CC(=O)N(c3ccccc3)C2)C(=O)N1 (stereo not shown) [Compound 99] | > 100 µM |
| O=C1CCC(Nc2ccccc2Oc2ccccc2)C(=O)N1 (stereo not shown) [Compound 23] | < 10 µM |
| CN(c1cccc(C(F)(F)F)c1)C1CCC(=O)NC1=O (stereo not shown) [Compound 58] | < 10 µM |
| O=C1CCC(Nc2ccc(Oc3ccccc3)cc2)C(=O)N1 (stereo not shown) [Compound 28] | < 10 µM |
| O=C1CCC(Nc2c(F)cccc2Cl)C(=O)N1 (stereo not shown) [Compound 54] | < 10 µM |
| CN1CCN(c2ccc(OC3CCC(=O)NC3=O)cc2)CC1 (stereo not shown) [Compound 126] | < 10 µM |
| O=C1CCC(Nc2ccc(CN3CCOCC3)cc2)C(=O)N1 (stereo not shown) [Compound 27] | < 10 µM |
| O=C1CCC(Nc2ccc(N3CCOCC3)cc2)C(=O)N1 (stereo not shown) [Compound 67] | < 10 µM |
| COc1ccc(N(C)C2CCC(=O)NC2=O)cc1 (stereo not shown) [Compound 20] | < 10 µM |
| CC(C)(C)OC(=O)N1CCN(C2=CC(=O)NC2=O)CC1 [Compound 111] | > 100 µM |
| Cc1cccc(N(C)C2CCC(=O)NC2=O)c1 (stereo not shown) [Compound 18] | < 10 µM |
| CN(c1ccc(Cl)c(Cl)c1)C1CCC(=O)NC1=O (stereo not shown) [Compound 60] | < 10 µM |
| O=C1CCC(Nc2cccc3ccccc23)C(=O)N1 (stereo not shown) [Compound 77] | < 10 µM |
| O=C1CCC(Nc2cc(Cl)ccc2O)C(=O)N1 (stereo not shown) [Compound 19] | < 10 µM |
| CN(CC(=O)O)C1CCC(=O)NC1=O (stereo not shown) [Compound 107] | > 100 µM |
| O=C1CCC(Nc2ccccc2-c2ccccc2)C(=O)N1 (stereo not shown) [Compound 5] | < 10 µM |
| COC(=O)c1cccnc1NC1CCC(=O)NC1=O (stereo not shown) [Compound 122] | > 100 µM |
| O=C1CCC(Nc2ccc(C3CCNCC3)cc2)C(=O)N1 (stereo not shown) [Compound 85] | < 10 µM |
| CN(c1ccccc1)C1CCC(=O)NC1=O (stereo not shown) [Compound 1] | < 10 µM |
| Cc1ccc(C#N)cc1NC1CCC(=O)NC1=O (stereo not shown) [Compound 68] | > 100 µM |

Second part, the molecule after the results:

| Kd | Structure (SMILES) |
| --- | --- |
| < 10 µM | COc1ccccc1NC1CCC(=O)NC1=O (stereo not shown) [Compound 15] |
| < 10 µM | O=C1CCC(Nc2cccc(N3CCOCC3)c2)C(=O)N1 (stereo not shown) [Compound 64] |
| < 10 µM | COc1ccc(NC2CCC(=O)NC2=O)c(F)c1 (stereo not shown) [Compound 11] |
| < 10 µM | O=C1CCC(Nc2cccc(-c3ccccc3)c2)C(=O)N1 (stereo not shown) [Compound 3] |
| < 10 µM | COc1ccc(NC2CCC(=O)NC2=O)cc1 (stereo not shown) [Compound 52] |
| < 10 µM | COc1cccc(N(C)C2CCC(=O)NC2=O)c1 (stereo not shown) [Compound 16] |
| < 10 µM | COc1cc(NC2CCC(=O)NC2=O)cc(C(F)(F)F)c1 (stereo not shown) [Compound 29] |
| < 10 µM | O=C1CCC(Nc2cccc(Oc3ccccc3)c2)C(=O)N1 (stereo not shown) [Compound 30] |
| < 10 µM | Cn1ccc2cc(NC3CCC(=O)NC3=O)ccc21 (stereo not shown) [Compound 51] |
| < 10 µM | COc1ccc(NC2CCC(=O)NC2=O)cc1F (stereo not shown) [Compound 7] |
| < 10 µM | O=C1CCC(Nc2cccc(C(F)(F)F)c2)C(=O)N1 (stereo not shown) [Compound 35] |
| < 10 µM | O=C1CCC(Nc2ccc(Cl)cc2)C(=O)N1 (stereo not shown) [Compound 37] |
| < 10 µM | COc1ccc(NC2CCC(=O)NC2=O)cc1Cl (stereo not shown) [Compound 46] |
| < 10 µM | O=C1CCC(Nc2cccc(-c3cnco3)c2)C(=O)N1 (stereo not shown) [Compound 39] |
| < 10 µM | Cc1ccccc1NC1CCC(=O)NC1=O (stereo not shown) [Compound 50] |
| < 10 µM | COc1ccc(Cl)cc1NC1CCC(=O)NC1=O (stereo not shown) [Compound 48] |
| < 10 µM | COc1ccc(NC2CCC(=O)NC2=O)c(C)c1 (stereo not shown) [Compound 36] |
| < 10 µM | COc1cc(F)ccc1NC1CCC(=O)NC1=O (stereo not shown) [Compound 10] |
| < 10 µM | COc1c(Cl)cccc1NC1CCC(=O)NC1=O (stereo not shown) [Compound 62] |
| < 10 µM | COc1cc(Cl)ccc1NC1CCC(=O)NC1=O (stereo not shown) [Compound 47] |
| < 10 µM | COc1ccc(Cl)c(NC2CCC(=O)NC2=O)c1 (stereo not shown) [Compound 44] |
| < 10 µM | N#Cc1cccc(NC2CCC(=O)NC2=O)c1 (stereo not shown) [Compound 56] |
| < 10 µM | Cc1ccc(NC2CCC(=O)NC2=O)cc1 (stereo not shown) [Compound 38] |
| < 10 µM | CCCOc1ccc(NC2CCC(=O)NC2=O)cc1 (stereo not shown) [Compound 31] |
| < 10 µM | COc1cccc(NC2CCC(=O)NC2=O)c1 (stereo not shown) [Compound 13] |
| < 10 µM | O=C1CCC(Nc2cc(F)ccc2Cl)C(=O)N1 (stereo not shown) [Compound 45] |
| < 10 µM | O=C1CCC(Nc2cccc(N3CCNCC3)c2)C(=O)N1 (stereo not shown) [Compound 86] |
| < 10 µM | Cc1ccc(NC2CCC(=O)NC2=O)cc1C#N (stereo not shown) [Compound 12] |
| < 10 µM | O=C1CCC(Nc2cccc(-c3ccccn3)c2)C(=O)N1 (stereo not shown) [Compound 22] |
| < 10 µM | COc1ccc(NC2CCC(=O)NC2=O)c(OC)c1 (stereo not shown) [Compound 70] |

Same assay, conditions: FP displacement of (−)-Thalidomide-Alexa Fluor or Pomalidomide-fluorescein probe; 400 nM CRBN-DDB1, 5 nM probe; Degronimers

| Structure (SMILES) | Kd |
| --- | --- |
| Cc1nnc2n1-c1ccc(-c3cnn(CCCCCCN4CCN(c5ccc(NC6CCC(=O)NC6=O)cc5)CC4)c3)cc1C(c1ccc(Cl)cc1)=NC21CC1 (stereo not shown) [Degronimer 2, 3-((4-(4-(6-(4-(6-(4-chlorophenyl)-1-methylspiro[benzo[f][1,2,4]triazolo[4,3-a][1,4]diazepine-4,1′-cyclopropan]-8-yl)-1H-pyrazol-1-yl)hexyl)piperazin-1-yl)phenyl)amino)piperidine-2,6-dione] | < 10 µM |
